Experiment: Dual-Glo Luciferase Assay: The Dual-Glo Luciferase Reagent was prepared by transferring the contents of one bottle of Dual-Glo Luciferase Buffer to one bottle of Dual-Glo Luciferase Substrate to create the Dual-Glo Luciferase Reagent. Mixing was performed by inversion until the substrate was thoroughly dissolved. After mixing, the reagent was aliquoted into 15 ml tubes. In the afternoon (24 hrs post compound treatment), the DMEM+medium in the 384 well plates were aspirated by Microplate Washer.Measuring firefly luciferase activity: 20 ul Dual-Glo Luciferase Reagent was added to the 384-well plates. The plates were protected from light to prevent interference with the assay. The plates were shaken for 1 min followed centrifuging plates at 1000 rpm for 30 seconds. After waiting at least 10 minutes, the firefly luminescence was measured by Envision.Measuring renilla luciferase activity: 20 ul Stop-Glo Reagent was added to the 384-well plates. The plates were shaken for 1 min and then centrifuged at 1000 rpm for 30 seconds. After waiting at least 10 minutes, the renilla luminescence was measured by Envision.Compound IC50 and maximum inhibition on the firefly luciferase and renilla luciferase activities were reported separately.

Row | IC50 | SMILES
1 | < 100 nM | C[C@H](CCN(C)C)NC(=O)c1ccc2c(Oc3ccc(C(F)(F)F)cc3)cccc2c1
2 | < 100 nM | C[C@@H](NC(=O)c1ccc2c(Oc3ccc(C(F)(F)F)cc3)cccc2c1)C1CNC1
3 | in the range around 2000 nM | O=C(N[C@@H](CO)C1CNC1)c1ccc2c(Oc3ccc(C(F)(F)F)cc3)cccc2c1
4 | in the range around 550 nM | O=C(N[C@@H](CO)c1ccccn1)c1ccc2c(Oc3ccc(C(F)(F)F)cc3)cccc2c1
5 | < 100 nM | C[C@@H](NC(=O)c1ccc2c(Oc3ccc(C(F)(F)F)cc3)cccc2c1)C1CN(C2CC2)C1
6 | < 100 nM | O=C(NC(CCO)c1ccccn1)c1ccc2c(Oc3ccc(C(F)(F)F)cc3)cccc2c1 (stereo not given)
7 | < 100 nM | O=C(NC(CCO)CCO)c1ccc2c(Oc3ccc(C(F)(F)F)cc3)cccc2c1
8 | in the range around 2000 nM | C[C@H](NC(=O)c1ccc2c(Oc3ccc(C(F)(F)F)cc3)cccc2c1)C1(F)CNC1
9 | in the range around 550 nM | C[C@@H](NC(=O)c1ccc2c(Oc3ccc(C(F)(F)F)cc3)cccc2c1)C1CCN(CC(F)F)CC1
10 | in the range around 550 nM | CC(=O)N1CC([C@@H](C)NC(=O)c2ccc3c(Oc4ccc(C(F)(F)F)cc4)cccc3c2)C1
11 | < 100 nM | O=C(N[C@@H](CCO)c1ccccn1)c1ccc2c(Oc3ccc(C(F)(F)F)cc3)cccc2c1
12 | < 100 nM | COc1cc(Oc2ccc(C(F)(F)F)cc2)c2ncc(C(=O)N[C@H](C)CO)cc2c1
13 | < 100 nM | C[C@@H](CCN)NC(=O)c1ccc2c(Oc3ccc(C(F)(F)F)cc3)cccc2c1
14 | < 100 nM | C[C@H](NC(=O)c1cnc2c(Oc3ccc(C(F)(F)F)cc3)cccc2c1)c1cccc2nc[nH]c12
15 | < 100 nM | C[C@H](CCNCCF)NC(=O)c1ccc2c(Oc3ccc(C(F)(F)F)cc3)cccc2c1
16 | in the range around 550 nM | C[C@@H](NC(=O)c1cnc2c(Oc3ccc(C(F)(F)F)cc3)cccc2c1)c1cccc2nc[nH]c12
17 | < 100 nM | C[C@@H](NC(=O)c1ccc2c(Oc3ccc(C(F)(F)F)cc3)cccc2c1)C1(O)CNC1
18 | < 100 nM | C[C@@H](CN)NC(=O)c1ccc2c(Oc3ccc(C(F)(F)F)cc3)cccc2c1
19 | < 100 nM | C[C@@H](CCO)NC(=O)c1ccc2c(Oc3ccc(C(F)(F)F)cc3)cccc2c1
20 | < 100 nM | C[C@H](CCNCC(F)F)NC(=O)c1ccc2c(Oc3ccc(C(F)(F)F)cc3)cccc2c1

Row | IC50 | SMILES
21 | < 100 nM | O=C(N[C@H](CO)c1ccccn1)c1ccc2c(Oc3ccc(C(F)(F)F)cc3)cccc2c1
22 | in the range around 550 nM | O=C(N[C@H](CCO)c1ccccn1)c1ccc2c(Oc3ccc(C(F)(F)F)cc3)cccc2c1
23 | < 100 nM | C[C@@H](NC(=O)c1ccc2c(Oc3ccc(C(F)(F)F)cc3)cccc2c1)c1cccc2ccc(=O)[nH]c12
24 | in the range around 2000 nM | C[C@H](NC(=O)c1ccc2c(Oc3ccc(C(F)(F)F)cc3)cccc2c1)C1CN(C2CC2)C1
25 | in the range around 550 nM | C[C@@H](NC(=O)c1cnc2c(Oc3ccc(C(F)(F)F)cc3)cccc2c1)c1cccc2ccsc12
26 | in the range around 550 nM | C[C@@H](NC(=O)c1ccc2c(Oc3ccc(C(F)(F)F)cc3)cccc2c1)C1CCN(CCO)CC1
27 | in the range around 550 nM | CC(C)N1CCC([C@@H](C)NC(=O)c2ccc3c(Oc4ccc(C(F)(F)F)cc4)cccc3c2)CC1
28 | in the range around 550 nM | CCN1CC([C@H](C)NC(=O)c2ccc3c(Oc4ccc(C(F)(F)F)cc4)cccc3c2)C1
29 | in the range around 550 nM | CCN1CC([C@@H](C)NC(=O)c2ccc3c(Oc4ccc(C(F)(F)F)cc4)cccc3c2)C1
30 | in the range around 550 nM | C[C@@H](NC(=O)c1ccc2c(Oc3ccc(C(F)(F)F)cc3)cccc2c1)C1CN(C)C1
31 | in the range around 550 nM | C[C@@H](NC(=O)c1ccc2c(Oc3ccc(C(F)(F)F)cc3)cccc2c1)C1CN(CCO)C1
32 | < 100 nM | COc1cc(Oc2ccc(C(F)(F)F)cc2)c2ncc(C(=O)NC(CO)c3ccccn3)cc2c1 (stereo not given)
33 | < 100 nM | C[C@H](CCN)NC(=O)c1ccc2c(Oc3ccc(C(F)(F)F)cc3)cccc2c1
34 | < 100 nM | C[C@H](NC(=O)c1cc2cccc(Oc3ccc(C(F)(F)F)cc3)c2s1)c1ccccn1
35 | in the range around 550 nM | C[C@H](CN)NC(=O)c1ccc2c(Oc3ccc(C(F)(F)F)cc3)cccc2c1
36 | < 100 nM | C[C@H](CO)NC(=O)c1cnc2c(Oc3ccc(C(F)(F)F)cc3)cc(F)c(F)c2c1
37 | in the range around 550 nM | CC(=O)N1CC([C@H](C)NC(=O)c2ccc3c(Oc4ccc(C(F)(F)F)cc4)cccc3c2)C1
38 | in the range around 550 nM | C[C@H](NC(=O)c1ccc2c(Oc3ccc(C(F)(F)F)cc3)cccc2c1)C1(O)CNC1
39 | < 100 nM | C[C@H](NC(=O)c1ccc2c(Oc3ccc(C(F)(F)F)cc3)cccc2c1)C1CNC1
40 | < 100 nM | C[C@H](CCNCCO)NC(=O)c1ccc2c(Oc3ccc(C(F)(F)F)cc3)cccc2c1

Row | IC50 | SMILES
41 | < 100 nM | C[C@H](CCO)NC(=O)c1ccc2c(Oc3ccc(C(F)(F)F)cc3)cccc2c1
42 | in the range around 2000 nM | C[C@H](NC(=O)c1ccc2c(Oc3ccc(C(F)(F)F)cc3)cccc2c1)C1CN(CCF)C1
43 | < 100 nM | NS(=O)(=O)c1ccc2c(Oc3ccc(C(F)(F)F)cc3)cccc2c1
44 | in the range around 2000 nM | C[C@H](NC(=O)c1ccc2c(Oc3ccc(C(F)(F)F)cc3)cccc2c1)C1CN(CC(F)F)C1
45 | < 100 nM | C[C@@H](NC(=O)c1ccc2c(Oc3ccc(C(F)(F)F)cc3)cccc2c1)C1CN(CC(F)F)C1
46 | in the range around 2000 nM | CC(C)N1CC([C@@H](C)NC(=O)c2ccc3c(Oc4ccc(C(F)(F)F)cc4)cccc3c2)C1
47 | in the range around 550 nM | C[C@@H](NC(=O)c1ccc2c(Oc3ccc(C(F)(F)F)cc3)cccc2c1)C1(F)CNC1
48 | in the range around 550 nM | C[C@H](NC(=O)c1ccc2c(Oc3ccc(C(F)(F)F)cc3)cccc2c1)C1CN(CCO)C1
49 | < 100 nM | CCNCC[C@@H](C)NC(=O)c1ccc2c(Oc3ccc(C(F)(F)F)cc3)cccc2c1
50 | in the range around 550 nM | O=C(N[C@H](CO)C1CNC1)c1ccc2c(Oc3ccc(C(F)(F)F)cc3)cccc2c1
51 | in the range around 2000 nM | C[C@H](NC(=O)c1ccc2c(Oc3ccc(C(F)(F)F)cc3)cccc2c1)C1CN(C)C1
52 | in the range around 550 nM | CC(C)N1CC([C@H](C)NC(=O)c2ccc3c(Oc4ccc(C(F)(F)F)cc4)cccc3c2)C1
53 | in the range around 550 nM | C[C@@H](NC(=O)c1ccc2c(Oc3ccc(C(F)(F)F)cc3)cccc2c1)C1CN(CCCCO)C1
54 | < 100 nM | CNCC[C@@H](C)NC(=O)c1ccc2c(Oc3ccc(C(F)(F)F)cc3)cccc2c1
55 | < 100 nM | C[C@@H](NC(=O)c1ccc2c(Oc3ccc(C(F)(F)F)cc3)cccc2c1)C1CN(CCF)C1
56 | < 100 nM | C[C@@H](NC(=O)c1ccc2c(Oc3ccc(C(F)(F)F)cc3)cccc2c1)C1CCN(C)CC1
57 | in the range around 550 nM | CCN1CCC([C@@H](C)NC(=O)c2ccc3c(Oc4ccc(C(F)(F)F)cc4)cccc3c2)CC1
58 | in the range around 550 nM | C[C@@H](NC(=O)c1ccc2c(Oc3ccc(C(F)(F)F)cc3)cccc2c1)C1CCN(CCF)CC1
59 | < 100 nM | COc1cc(Oc2ccc(C(F)(F)F)cc2)c2ncc(C(=O)NC(C)C)cc2c1
60 | < 100 nM | C[C@@H](NC(=O)c1ccc2c(Oc3ccc(C(F)(F)F)cc3)cccc2c1)C1CCNCC1

From ChEMBL document CHEMBL5729264, “Bicyclic compounds” (2022)
